Data as given in US4554289A, “OF4949” (Takara Shuzo Co., Ltd., priority 1982, dated 1985).

How the values were obtained:
[1] = tested on: cellular immunity (delayed type hypersensitivity to sheep erythrocytes); assay: Delayed type hypersensitivity (DTH) to sheep erythrocytes, hind paw edema (cellular immunity); type: in vivo, CDF1 strain female mice; conditions: for Thickness of Edema (Mean Value ± Standard Error): hind paw, 24 hours after challenge; for Potentiating Ratio to Control: control = 100
Procedure: Thus, sheep erythrocytes are used as antigen and 1×10^5 of them are subjected to intravenous injection to CDF1 strain female mice of 10 weeks of age (8 mice per group) and, immediately after the sensitization, a solution of OF4949 or derivatives thereof in a sterilized water is injected intraperitoneally with dosages of 5, 50 or 500 μg/kg and, after four days, 10^8 sheep erythrocytes are injected subcutaneously into left hind paws of the mice. After 24 hours, the degree of edema, i.e. thickness of the paws at that time, observed at the hind paws is measured using a slide calipers.

Solubilities = type: physicochemical
[2] = Neutral, acidic or basic properties; type: physicochemical
ICR strains of mice = assay: Acute toxicity test, 300 mg/kg intraperitoneally; type: in vivo
Procedure: The compounds of the present invention are also characterized by a very low toxicity, making their administration to humans and animals facile. Acute toxicity tests injecting 300 mg/kg intraperitoneally of representative compounds of the present invention to ICR strains of mice produced the toxicity results set forth in Table 9 below: […]

[3] = in methyl alcohol and ethyl alcohol
[4] = in n-propyl alcohol, n-butyl alcohol, acetone, ethyl acetate, chloroform, ether, benzene, and hexane
[5] = in water, alkaline water, and dimethyl sulfoxide

Row | SMILES | Thickness of Edema (Mean Value ± Standard Error) ([1]; 5 μg/kg intraperitoneally) | Potentiating Ratio to Control ([1]; 5 μg/kg intraperitoneally) | Thickness of Edema (Mean Value ± Standard Error) ([1]; 50 μg/kg intraperitoneally) | Potentiating Ratio to Control ([1]; 50 μg/kg intraperitoneally) | Thickness of Edema (Mean Value ± Standard Error) ([1]; 500 μg/kg intraperitoneally) | Potentiating Ratio to Control ([1]; 500 μg/kg intraperitoneally) | Solubility (Solubilities; [3]) | Solubility (Solubilities; [4]) | Solubility (Solubilities; [5]) | Neutral, acidic or basic properties [2] | Acute toxicity test result (ICR strains of mice)
1 | NC1Cc2ccc(O)c(c2)Oc2ccc(cc2)CC(C(=O)O)NC(=O)C(C(O)C(=O)O)NC1=O (stereo not drawn) [Compound 2] | 9.3 ± 1.2 × 0.1 mm | 116% | 9.1 ± 1.1 × 0.1 mm | 114% | 10.2 ± 0.9 × 0.1 mm | 128% | – | – | – | – | –
2 | COc1ccc2cc1Oc1ccc(cc1)CC(C(N)=O)NC(=O)C(C(O)C(N)=O)NC(=O)C(N)C2 (stereo not drawn) [Compound 17] | 8.8 ± 0.7 × 0.1 mm | 126% | 8.4 ± 0.7 × 0.1 mm | 120% | 8.5 ± 0.7 × 0.1 mm | 121% | – | – | – | – | –
3 | COc1ccc2cc1Oc1ccc(cc1)CC(C(=O)O)NC(=O)C(C(O)C(=O)O)NC(=O)C(N)C2 (stereo not drawn) [Compound 18] | 8.2 ± 0.7 × 0.1 mm | 117% | 8.5 ± 0.7 × 0.1 mm | 121% | 7.5 ± 0.6 × 0.1 mm | 107% | – | – | – | – | –
4 | COc1ccc2cc1Oc1ccc(cc1)CC(CO)NC(=O)C(C(O)CO)NC(=O)C(N)C2 (stereo not drawn) [Compound 21] | 7.8 ± 0.8 × 0.1 mm | 111% | 7.8 ± 0.7 × 0.1 mm | 111% | 8.7 ± 0.8 × 0.1 mm | 124% | – | – | – | – | –
5 | NC(=O)C(O)C1NC(=O)C(N)Cc2ccc(O)c(c2)Oc2ccc(cc2)CC(C(=O)O)NC1=O (stereo not drawn) [OF4949-II] | 11.7 ± 1.9 × 0.1 mm | 127% | 13.5 ± 1.2 × 0.1 mm | 147% | 11.4 ± 2.6 × 0.1 mm | 124% | hardly soluble | insoluble | soluble | amphoteric | –
6 | COc1ccc2cc1Oc1ccc(cc1)CC(C(=O)O)NC(=O)C(C(O)C(N)=O)NC(=O)C(N)C2 (stereo not drawn) [OF4949-I] | 9.5 ± 0.6 × 0.1 mm | 132% | 11.7 ± 1.5 × 0.1 mm | 163% | 9.1 ± 0.5 × 0.1 mm | 126% | hardly soluble | insoluble | soluble | amphoteric | No toxicity is observed
